Experimental data as given in ChEMBL document CHEMBL3507680, “University of Dundee, Gates Library screen for HepG2 cell viability”.

Experiment: Human HepG2 cell viability assay in 384 well format
Assay type: toxicity, cell-based
Set-up: dose 125 nL, time 70.5 hour; cytotoxicity at 70.5 h: concentration not given beside the values
Settings: HepG2 cells, read-out: Inhibition

| Compound | cytotoxicity at 70.5 h [%] |
| --- | --- |
| O=C(NC1CCCC1)c1ccc(COCC(F)(F)F)o1 | -0.375 |
| CCOc1ccc(NC(=O)N(CCN(C)C)C(C)c2ccncc2)cc1 (centres undefined) | 13.6 |
| CCOCCCNC(=O)C(NC(=O)Cc1cccs1)c1ccccc1 (centres undefined) | 4.71 |
| O=C(NC1CCCCC1)c1ccc(COCC(F)(F)F)o1 | 19.8 |
| CCC(=O)Nc1ccccc1Sc1nc(Br)nn1C | -8.59 |
| Cn1nc(Br)nc1Sc1ccccc1NC(=O)C1CC1 | 1.89 |
| CCCN1CCc2nc(SCc3ccc(F)cc3)[nH]c(=O)c2C1 | -3.74 |
| CC(=O)Nc1c(C)noc1/C=C\c1ccc(S(=O)(=O)N2CCCC2)cc1 | -3.48 |
| COC(=O)c1ccc(-c2ccc(/C=C3\C(=O)NC(=N)N3C)o2)cc1 | 12.1 |
| COc1ccc(Cl)c(-c2noc3ncn(CCC(=O)O)c(=O)c23)c1 | -20.8 |
| COC(=O)Cn1c(C)cc(=O)n2nc(-c3cccs3)nc12 | 13.3 |
| Cc1cc(Cc2ccc(S(=O)(=O)N3CCCC3)cc2)c(=O)[nH]n1 | -23.4 |
| CCOC(=O)CNC(=O)NCc1cc(C)n(-c2ccccc2OC)c1C | 14.4 |
| COc1ccccc1-n1c(C)cc(CNC(=O)NC(C)C)c1C | -9.03 |
| COc1ccc(Nc2nc(N)c(C(C)=O)s2)cc1Cl | -9.72 |
| COc1cccc(CNc2c(O)c(=O)c2=O)c1 | -20.2 |
| CC(=O)N1N=C(COc2ccc3c(c2)OCO3)OC1c1cccc(Cl)c1 (centres undefined) | -2.04 |
| CN1CC=C(c2noc(CCC(=O)N3CCc4ccccc4C3)n2)CC1 | -15 |
| COCCCNC(=O)N1CCN(C(=O)c2nsc3ccccc23)CC1 | -18.1 |
| COCCCNC(=O)N1CCN(C(=O)c2nsc3ccc(C)cc23)CC1 | 20.4 |
| COc1cnc(CSc2nnc(C)s2)cc1OCC(N)=O | 15.1 |
| CCN(CC)C(=O)CSc1nc2nc(C)ccc2o1 | 11.9 |
| CC(c1ccncc1)N(CCN(C)C)C(=O)Nc1ccc(Cl)c(Cl)c1 (centres undefined) | -11.5 |

| Compound | cytotoxicity at 70.5 h [%] |
| --- | --- |
| COC(=O)c1cccc(C(=O)NCc2ccco2)n1 | -15.9 |
| O=C1COc2ccc(S(=O)(=O)NCCC3=CCCCC3)cc2N1 | 0.831 |
| Nc1nnc(SCc2cc(=O)n3c4c(sc3n2)CCCC4)s1 | -8.05 |
| Cc1n[nH]c2c1C(c1ccc(F)cc1)SCC(=O)N2 (centres undefined) | -4.92 |
| O=C(Nc1ccc2c(c1)OCCO2)N1CCCC1c1ccco1 (centres undefined) | -10.5 |
| CCc1ccccc1NCc1nc2[nH]c(C)c(C)c(=O)n2n1 | 10.8 |
| Cc1cccc(NC(=O)Nc2c[nH]c(=O)[nH]c2=O)c1C | -1.56 |
| O=c1cc(CSc2nnc[nH]2)nc2sc3c(n12)CCCC3 | -10.9 |
| Cc1nnc(SCc2cc(=O)n3c4c(sc3n2)CCCC4)[nH]1 | -8.32 |
| COCCNC(=O)c1cnc(N(C)C)nc1C | -5.03 |
| CC(=O)c1cccc(NC(=O)c2cnc(N3CCN(C)CC3)nc2C)c1 | 12.8 |
| CCC1CN(CC(=O)NCCN(CC)CC)c2ccccc2S1 (centres undefined) | -6.69 |
| O=C(c1cccs1)N1CCN(Cc2cc(=O)c3ccccc3[nH]2)CC1 | -4.26 |
| CCC(CC)C(=O)N1CCN(Cc2cc(=O)c3ccccc3[nH]2)CC1 | 7.24 |
| COc1ccc(C)cc1NC(=O)Nc1cnc(O)nc1O | -6.34 |
| Cc1nn(C)c2c(=O)n(CC(=O)NCc3ccccn3)ccc12 | 0.706 |
| Cc1nn(C)c2c(=O)n(CC(=O)NCCC(C)C)ccc12 | -5.71 |
| Cc1nn(C)c2c(=O)n(CC(=O)NCc3ccc(N(C)C)cc3)ccc12 | -0.296 |
| COc1ccc(CNC(=O)Cn2ccc3sccc3c2=O)cc1 | 12.8 |
| CC(NC(=O)Cn1ccc2sccc2c1=O)c1ccccc1 (centres undefined) | -10.1 |
| O=C(Cn1ccc2sccc2c1=O)NCc1ccc(F)cc1 | -9.4 |
| O=C(Cn1ccc2sccc2c1=O)NCc1ccccc1F | -5.13 |
| CCc1ccc(CNC(=O)Cn2ccc3sccc3c2=O)cc1 | 2.36 |

| Compound | cytotoxicity at 70.5 h [%] |
| --- | --- |
| COC(=O)CSc1nnc(CCNC(=O)OC(C)(C)C)o1 | -4.92 |
| CCOCCCNC(=O)CCCC(=O)n1nc(C)c2ccccc21 | -3.2 |
| CC1=C(c2ccc(F)cc2)S(=O)(=O)N=C1N1CCc2ccccc21 | -4.74 |
| O=C(NCCCN1CCOCC1)c1ccc(-n2ccc3ccccc32)s1 | -3.96 |
| CCOc1nc2cnccc2n(CC(=O)Nc2ccccc2OC)c1=O | -7.54 |
| O=C(CSC1=NS(=O)(=O)c2cc(F)ccc2N1)c1ccccc1 | -3.16 |
| COc1cccc(NC(=O)c2nc3ccccc3n(C)c2=O)c1 | -6.23 |
| COc1cc(CN2CCCCCC2c2cccs2)cc(OC)c1OC (centres undefined) | -9.84 |
| Oc1ccccc1CN1CCCCCC1c1cccs1 (centres undefined) | -5.04 |
| COC(=O)CNC(=O)N1CCN(c2nc3ccccc3n2C)CC1 | 26.4 |
| CCS(=O)(=O)N1CCc2ccc(NC(=O)Nc3ccccc3C)cc21 | -11 |
| CCS(=O)(=O)N1CCc2ccc(NC(=O)Nc3ccccc3)cc21 | 9.4 |
| CCS(=O)(=O)N1CCc2ccc(NC(=O)Nc3cccc(C#N)c3)cc21 | 17.6 |
| COC(=O)c1cccc(C(=O)N2CCN(c3ccc(Cl)cc3)CC2)n1 | -6.13 |
| COC(=O)c1cccc(C(=O)N2CCN(c3ccc(OC)cc3)CC2)n1 | -7.54 |
| O=C(Cc1ccsc1)NCC1Cn2nnc(-c3ccoc3)c2CO1 (centres undefined) | -4.44 |
| COc1ccc(CC(=O)N2CCc3nc(C(=O)N(C)C)sc3CC2)cc1 | -4 |
| CC(C)N(C)Cc1nnc2n1CCCN(C(=O)C1CCCO1)C2 (centres undefined) | -7.64 |
| O=C(C1CCCO1)N1CCCn2c(nnc2Cn2cccn2)C1 (centres undefined) | -10.9 |
| CCC(=O)N1CCc2nc(N3CCOCC3)nc(N(C)C)c2CC1 | 35.1 |
| CCCS(=O)(=O)N1CCC2(CC1)COCCN(C(C)=O)C2 | -4.27 |
| O=C(Nc1cnccn1)[C@@H]1C[C@H]2OCC[C@H]2N(c2ncc(F)cn2)C1 | 18 |
| CCn1cc2c(n1)C(COCC1CC1)CN(C(=O)c1ccsc1)C2 (centres undefined) | -10.1 |

| Compound | cytotoxicity at 70.5 h [%] |
| --- | --- |
| CCCS(=O)(=O)N1CCOC2(COCCN(C(C)=O)C2)C1 (centres undefined) | -8.79 |
| CN(C)C(=O)Cn1c2c(ccc1=O)CC(NCc1cccnc1)CC2 (centres undefined) | -10.4 |
| O=C(C1CCCO1)N1CCCn2c(nnc2Cn2cccc2)C1 (centres undefined) | -11.4 |
| c1cc(-c2ccc3c(c2)C2(CCNCC2)CC3)ccn1 | 50.6 |
| O=C([C@H]1COC[C@H]2CN(CC3CC3)C[C@H]21)N1CCOCC1 | -2.68 |
| Cn1c(C(=O)N2CCOCC2)nc2c1CCN(c1ncccn1)C2 | -1.44 |
| CCOCC1COCCC12CCN(C(=O)C1=CCCCC1)CC2 (centres undefined) | -4.56 |
| COc1cccc(CC(=O)N2CCc3ncnc(C)c3CC2)c1 | -5.98 |
| O=S1(=O)NCC2(CCN(c3ncc(F)cn3)CC2)COc2ccccc21 | -0.496 |
| CC1N(C)C(=O)COC12CCN(C(=O)CCc1ccccc1)CC2 (centres undefined) | 5.92 |
| O=C(Cc1cccc(F)c1)N1CCc2ncnc(N3CCCC3)c2CC1 | -1.93 |
| CC(C)n1cnc2c1C(C(=O)N1CCCC1)N(S(C)(=O)=O)CC2 (centres undefined) | -0.195 |
| Cc1ccc(CNC(=O)C2c3c(ncn3C(C)C)CCN2S(C)(=O)=O)o1 (centres undefined) | -0.242 |
| CN1CCCN(C(=O)c2nc3c(n2C)CCN(c2ncccn2)C3)CC1 | 22.6 |
| CCOCC1C[C@@H]2OCCN(C(=O)c3ccc[nH]3)[C@H]2C1 (some centres undefined) | -6.8 |
| COc1ccc(S(=O)(=O)NC(=O)COC2CCCC2)cc1 | -5.57 |
| Cc1nc(C)n(CC2CCCN(Cc3ncc(C(C)(C)C)o3)C2)n1 (centres undefined) | 23 |
| CCn1cnnc1CNC(=O)N1CCN(c2nccs2)CC1 | -3.76 |
| CC(NC(=O)CCn1cccn1)c1ccc2c(c1)OCCO2 (centres undefined) | 14.2 |
| CCn1cnnc1CNC(=O)N1CCN(c2ccccc2Cl)CC1 | -3.38 |
| CCn1cnnc1CNC(=O)N1CCN(c2ccc(OC)cc2)CC1 | -11.7 |
| Cc1cc(C(=O)N2CCCC2)ccc1NCc1nc(CC(C)C)no1 | -9.73 |
| CCn1cnnc1CNC(=O)N1CCN(c2ccccc2O)CC1 | -13.9 |

| Compound | cytotoxicity at 70.5 h [%] |
| --- | --- |
| Cc1ccccc1-c1noc(CN2CCC(N3CCNC3=O)CC2)n1 | 40.4 |
| Cc1cc(C)n(CC2CN(CC(=O)N3CCC3)CCO2)n1 (centres undefined) | -13.4 |
| Cc1cc(C)n(CC2CN(CC(=O)N3CCNC3=O)CCO2)n1 (centres undefined) | -1.37 |
| O=C(c1ccccc1Cl)N1CCN(CCc2ccccn2)CC1 | -5.74 |
| O=C([C@H]1CCCO1)N1CCC2(CC1)CNCc1ccccc12 | 8.83 |
| O=C([C@@H]1CSCN1)N1CCC2(CC1)CNCc1ccccc12 | 3.6 |
| COCCN1CC[C@H]2CN(c3cc(OC)ncn3)C[C@@H]2C1=O | 24.4 |
| CC[C@@H]1N(CC2CC2)CCC[C@]12CCC(=O)N2 | -1.41 |
| Cc1nc2c(c(NC(C)C)n1)CCN(C1CCOCC1)CC2 | 2.46 |
| CN(C)C(=O)Cn1c2c(ccc1=O)CC(NCc1ccoc1)CC2 (centres undefined) | 1.44 |
| CN(C)CCNC(=O)[C@H]1C[C@@H]2CN(C(=O)NC3CCCC3)C[C@H]1O2 | 5.4 |
| CN(C)Cc1cnc2n1CCN(C(=O)Cc1ccsc1)CC2 | 8.26 |
| CC1N(C)C(=O)COC12CCN(Cc1ccsc1)CC2 (centres undefined) | 4.85 |
| COCCN1CCOCC12CCN(c1ccc(C#N)cc1)CC2 | -0.11 |
| O=S1(=O)NCC2(CCNCC2)COc2ccccc21 | -2.63 |
| CN(C)Cc1cnc2n1CCN(C(=O)NCc1ccccc1)CC2 | 4.32 |
| CN(C)Cc1cnc2n1CCN(C(=O)Cc1cccc(F)c1)CC2 | 4.88 |
| Cc1nc(CN2CCOCC23CCN(c2ccc(C#N)cc2)CC3)cs1 | -2.38 |
| CN1CCOCC12CCN(c1ccc(C#N)cc1)CC2 | -5.69 |
| COCCN1CCCC12CCN(Cc1cccnc1OC)CC2 | 31.2 |
| COCCCN1CCCC12CCN(Cc1cccnc1OC)CC2 | 1.58 |
| OCCN1CC2(CCN(CC3CC3)CC2)c2ccccc21 | 4.7 |
